Results reported in PMC9684503 (Communications Biology, 2022).
“And” between values parts separate entries of the source, which are not always exact repeats. Equal values may be shown once. Where a name gives a salt, the structure may show the parent alone.

Assays:
[1] = biological target: T1, VMAT2 (Rattus norvegicus, UniProt Q01827); conditions: hek293 cells, 50 µM
[2] = biological target: T1, VMAT2; assay: [3H]-DTBZ competition assay in Hek293 cells expressing VMAT2; conditions: 50 μM compound;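 further: HEK293 cells transfected with VMAT2, pretreated 30 min with compound, then given 5 nM [3H]-DTBZ for 20 min at 37 °C, bound label read by scintillation counting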
[3] = biological target: T2, rat VMAT2-His (Rattus norvegicus, UniProt Q01827); assay: Differential scanning fluorimetry (DSF) with CPM dye: change of melting temperature of purified VMAT2; type: binding; conditions: for ΔTm: Table 1, DSF screening, mean ± SD of triplicates; for ΔTm at 12 µM / ΔTm at 37 µM / ΔTm at 10 µM / ΔTm at 30 µM / ΔTm at 90 µM / ΔTm at 270 µM / ΔTm at 11 µM / ΔTm at 33 µM: Table S2 dose response, read-out: ΔTm; for ΔTm at 12 µM: compound 0,12 µM; for ΔTm at 37 µM: compound 0,37 µM; for ΔTm at 10 µM: compound 10 µM; for ΔTm at 30 µM: compound 30 µM; for ΔTm at 90 µM: compound 90 µM; for ΔTm at 270 µM: compound 270 µM; for ΔTm at 11 µM: compound 1,11 µM; for ΔTm at 33 µM: compound 3,33 µM
T2 construct: The ORF of rat VMAT2 was subcloned into a pFastBac vector; His; made in house; host or cells: Sf9 insect cells (baculovirus)
Experimental: To screen purified VMAT2 by DSF we expressed the rat VMAT2 protein, as VMAT2-His, in SF9 insect cells using the baculovirus expression system. The transporter was solubilized and purified in n-Dodecyl-β-D-maltoside (DDM)/cholesterol hemisuccinate (CHS) micelles by immobilized metal affinity chromatography (IMAC) and size exclusion chromatography (SEC). […] Screening was performed using DSF and the thiol-reactive dye 7-diethylamino-3-(4-maleimidophenyl)-4-methylcoumarin (CPM), an approach that monitors changes to the protein melting temperature (Tm) upon compound binding. Using CPM or other dyes, DSF-based assays have successfully been used in molecular-based screenings[34],[35]. […] DSF screening was performed in 384 well plates using the thiol-sensing dye 7-diethylamino-3-(4-maleimidophenyl)-4-methylcoumarin (CPM) (Merck). […] Protein melting curves were determined using a LightCycler 480 ii RT-PCR system (Roche), with a temperature ramp increasing from 25 to 95 °C at a rate of 2 °C/min. Data analysis was performed using an in-house software that automatically determines the protein midpoint melting temperature (Tm) based on the second derivative of the melting curves or using the HTSDSF explorer as described in ref. [58]. […] 6 μl of this mix was dispensed to each well of 384 well plates using a Multidrop™ Combi Reagent Dispenser (Thermo Scientific). […] All initial hits were then subjected to an initial validation in triplicates with a compound concentration of 200 μM and a ΔTm > 5× the standard deviation (SD) cut off. […] Processing of the data from the primary screening and the concentration-dependent validation was performed as reported.

[4] = biological target: rat VMAT2 (Rattus norvegicus, UniProt Q01827); assay: FFN206 uptake assay in transfected Hek293 cells; conditions: for VMAT2-specific FFN206 uptake relative to DMSO (=1), replicate samples: Fig. 2a source data, 25 μM compound
[5] = biological target: T3, human VMAT1 (Homo sapiens, UniProt P54219); assay: FFN206 uptake assay in transfected Hek293 cells; type: cell-based; conditions: Table S1, substrate uptake assays in transfected Hek293 cells
T3 construct: expressed in transfected cells; host or cells: Hek293 cells, transient
T3 sequence (P54219 1-525): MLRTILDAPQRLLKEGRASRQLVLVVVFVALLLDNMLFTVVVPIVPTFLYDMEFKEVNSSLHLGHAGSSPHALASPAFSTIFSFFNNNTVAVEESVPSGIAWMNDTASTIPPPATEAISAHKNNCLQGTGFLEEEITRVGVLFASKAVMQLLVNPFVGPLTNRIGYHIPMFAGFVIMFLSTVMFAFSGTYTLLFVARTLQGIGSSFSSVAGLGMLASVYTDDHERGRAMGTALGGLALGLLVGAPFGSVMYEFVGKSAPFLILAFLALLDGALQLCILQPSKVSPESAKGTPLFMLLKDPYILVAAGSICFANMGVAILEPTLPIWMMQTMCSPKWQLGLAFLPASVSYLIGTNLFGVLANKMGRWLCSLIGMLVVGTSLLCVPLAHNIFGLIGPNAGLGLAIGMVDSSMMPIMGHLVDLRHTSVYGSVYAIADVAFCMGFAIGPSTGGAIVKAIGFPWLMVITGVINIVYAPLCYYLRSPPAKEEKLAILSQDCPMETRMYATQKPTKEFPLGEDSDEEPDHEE

[6] = biological target: T4, human VMAT2 (Homo sapiens, UniProt Q05940); assay: FFN206 uptake assay in transfected Hek293 cells; type: cell-based; conditions: Table S1, substrate uptake assays in transfected Hek293 cells
T4 construct: expressed in transfected cells; host or cells: Hek293 cells, transient
T4 sequence (Q05940 whole entry): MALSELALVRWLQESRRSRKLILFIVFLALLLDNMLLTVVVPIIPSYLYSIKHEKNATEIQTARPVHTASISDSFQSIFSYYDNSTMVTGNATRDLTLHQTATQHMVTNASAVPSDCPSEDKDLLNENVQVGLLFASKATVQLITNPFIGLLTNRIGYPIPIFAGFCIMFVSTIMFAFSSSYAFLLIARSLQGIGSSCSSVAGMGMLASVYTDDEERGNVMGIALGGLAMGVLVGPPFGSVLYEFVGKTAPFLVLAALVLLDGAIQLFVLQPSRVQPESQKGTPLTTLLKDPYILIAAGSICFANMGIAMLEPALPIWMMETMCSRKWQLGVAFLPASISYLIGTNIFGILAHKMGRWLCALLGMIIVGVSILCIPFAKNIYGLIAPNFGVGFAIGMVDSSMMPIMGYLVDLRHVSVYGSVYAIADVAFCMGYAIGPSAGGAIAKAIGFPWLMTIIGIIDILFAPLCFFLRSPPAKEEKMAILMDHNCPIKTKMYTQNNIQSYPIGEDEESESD

rat VMAT2, sequence (Q01827 whole entry): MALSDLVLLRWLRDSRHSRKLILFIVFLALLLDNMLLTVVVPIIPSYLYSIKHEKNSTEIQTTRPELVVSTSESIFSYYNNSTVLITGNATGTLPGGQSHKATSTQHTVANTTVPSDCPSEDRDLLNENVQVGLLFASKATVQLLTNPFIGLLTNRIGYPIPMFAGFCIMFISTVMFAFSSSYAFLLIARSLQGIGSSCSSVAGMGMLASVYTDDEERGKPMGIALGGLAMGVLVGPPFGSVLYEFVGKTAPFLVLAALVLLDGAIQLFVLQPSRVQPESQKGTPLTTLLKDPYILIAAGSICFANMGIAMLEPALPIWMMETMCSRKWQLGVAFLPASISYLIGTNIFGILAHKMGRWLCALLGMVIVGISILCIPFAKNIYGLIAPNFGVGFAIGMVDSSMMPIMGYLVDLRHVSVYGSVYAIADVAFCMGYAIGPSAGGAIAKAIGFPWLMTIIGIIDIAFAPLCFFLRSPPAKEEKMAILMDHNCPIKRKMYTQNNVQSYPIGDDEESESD
T2 sequence (Q01827 whole entry): as above
T1 sequence (Q01827 whole entry): as above

Row | activity [1] | effect on [3H]-DTBZ binding compared with DMSO control (one-way ANOVA, p < 0.001) [2] | ΔTm [3] | ΔTm at 12 µM [3] | ΔTm at 37 µM [3] | ΔTm at 10 µM [3] | ΔTm at 30 µM [3] | ΔTm at 90 µM [3] | ΔTm at 270 µM [3] | ΔTm at 11 µM [3] | ΔTm at 33 µM [3] | IC50 [4] | Structure (SMILES) | VMAT2-specific FFN206 uptake relative to DMSO (=1), replicate samples [4] | further results
1 | 113 ± 23.2% | no statistically significant effect | −7.51 ± 0.04 oC | -0.81 °C | -0.99 °C | -2.21 °C | -1.43 °C | -2.04 °C | -5.36 °C | -1.46 °C | -1.47 °C | 3900 ± 1690 nM | COc1ccc(CN2CCN(C(c3ccc(F)cc3)c3ccc(F)cc3)CC2)c(OC)c1OC [Lomerizine, Lomerizine hydrochloride] | 0.1198 and 0.07933 and 0.1667 and 0.07626 | –
2 | – | – | 8.17 ± 0.14 oC | 4.89 °C | 5.05 °C | 6.86 °C | 4.27 °C | 4.64 °C | 5.17 °C | 5.52 °C | 5.92 °C | – | COc1cc2c(cc1OC)C1CC(=O)C(CC(C)C)CN1CC2 (centres unmarked) [Tetrabenazine] | – | IC50 [5]: > 100000 nM; IC50 [6]: 18 nM
3 | 87.5 ± 8.53% | no statistically significant effect | 7.36 ± 0.41 oC | 0.38 °C | 0.24 °C | 4.77 °C | 6.25 °C | 6.56 °C | 6.79 °C | 1.3 °C | 4.85 °C | > 10000 nM | COc1ccc2[nH]c([S+]([O-])Cc3ncc(C)c(OC)c3C)nc2n1 (centres unmarked) [Tenatoprazole] | 0.8521 and 0.6659 and 1.063 and 0.8968 | inhibition at 25 µM ([4]; HEK293, read-out: inhibitory effect on VMAT2 activity): ≤ 50%
4 | 31.6 ± 4.76% | statistically significantly effect | −1.26 ± 0.15 oC | – | – | – | – | – | – | – | – | 372 ± 195 nM | CCc1cc2c(cc1CC)CC(NC[C@H](O)c1ccc(O)c3[nH]c(=O)ccc13)C2 [Indacaterol] | – | FFN206 uptake relative to no compound (=1), replicate samples ([4]; Fig. 2b/2c source data, compound 0.0152 μM, listed as Indacterol): 1.046 and 0.9873 and 0.9954 and 1.047; FFN206 uptake relative to no compound (=1), replicate samples ([4]; Fig. 2b/2c source data, compound 0.1372 μM, listed as Indacterol): 0.9052 and 0.9503 and 0.5975 and 0.7395; FFN206 uptake relative to no compound (=1), replicate samples ([4]; Fig. 2b/2c source data, compound 0.4115 μM, listed as Indacterol): 0.655 and 0.7802 and 0.5475 and 0.5896; FFN206 uptake relative to no compound (=1), replicate samples ([4]; Fig. 2b/2c source data, compound 1.2346 μM, listed as Indacterol): 0.389 and 0.3824 and 0.2984 and 0.2513; FFN206 uptake relative to no compound (=1), replicate samples ([4]; Fig. 2b/2c source data, compound 3.7037 μM, listed as Indacterol): 0.2198 and 0.2721 and 0.1271 and 0.01615; FFN206 uptake relative to no compound (=1), replicate samples ([4]; Fig. 2b/2c source data, compound 11.1111 μM, listed as Indacterol): 0.3236 and 0.15 and 0.08791 and -0.0508; FFN206 uptake relative to no compound (=1), replicate samples ([4]; Fig. 2b/2c source data, compound 100.0000 μM, listed as Indacterol): 0.1623 and 0.1126 and 0.06583 and 0.01394; FFN206 uptake relative to no compound (=1), replicate samples ([4]; Fig. 2c source data, compound 0.0017 μM, listed as Indacterol): 0.9404 and 1.104 and 0.8827 and 0.8866

Row | Structure (SMILES) | activity [1] | effect on [3H]-DTBZ binding compared with DMSO control (one-way ANOVA, p < 0.001) [2] | ΔTm [3] | ΔTm at 12 µM [3] | ΔTm at 37 µM [3] | ΔTm at 10 µM [3] | ΔTm at 30 µM [3] | ΔTm at 90 µM [3] | ΔTm at 270 µM [3] | ΔTm at 11 µM [3] | ΔTm at 33 µM [3] | IC50 [4] | VMAT2-specific FFN206 uptake relative to DMSO (=1), replicate samples [4] | further results
5 | COc1ccccc1OCCNCC(O)COc1cccc2[nH]c3ccccc3c12 (centres unmarked) [Carvedilol] | 3.22 ± 3.37% | statistically significantly effect | −2.54 ± 0.19 oC | – | – | – | – | – | – | – | – | 185 ± 157 nM | – | FFN206 uptake relative to no compound (=1), replicate samples ([4]; Fig. 2b/2c source data, compound 0.0152 μM, listed as Carvediol): 0.766 and 0.8971 and 0.7075 and 0.9947; FFN206 uptake relative to no compound (=1), replicate samples ([4]; Fig. 2b/2c source data, compound 0.1372 μM, listed as Carvediol): 0.4929 and 0.5853 and 0.5773 and 0.7378; FFN206 uptake relative to no compound (=1), replicate samples ([4]; Fig. 2b/2c source data, compound 0.4115 μM, listed as Carvediol): 0.3687 and 0.2376 and 0.3168 and 0.3398; FFN206 uptake relative to no compound (=1), replicate samples ([4]; Fig. 2b/2c source data, compound 1.2346 μM, listed as Carvediol): 0.1087 and 0.07344; FFN206 uptake relative to no compound (=1), replicate samples ([4]; Fig. 2b/2c source data, compound 3.7037 μM, listed as Carvediol): 0.1063 and 0.05759 and 0.1334 and 0.2157; FFN206 uptake relative to no compound (=1), replicate samples ([4]; Fig. 2b/2c source data, compound 11.1111 μM, listed as Carvediol): 0.1084 and -0.01428 and 0.1171 and 0.3099; FFN206 uptake relative to no compound (=1), replicate samples ([4]; Fig. 2b/2c source data, compound 100.0000 μM, listed as Carvediol): -0.01159 and -0.1032 and -0.03855; FFN206 uptake relative to no compound (=1), replicate samples ([4]; Fig. 2c source data, compound 0.0017 μM, listed as Carvediol): 0.7452 and 0.9945 and 0.9725 and 0.9441
